Results on 2 compounds are retold here after ChEMBL document CHEMBL3758118, “Effects of a novel carbocyclic analog of pyrrolo[2,3-d]pyrimidine nucleoside on pleiotropic induction of cell death in prostate cancer cells with different androgen responsiveness” (2016).

The source made the active and inactive calls. No cut-off for these calls is given here.

The test system of test [1] is LNCaP. Description: Induction of apoptosis in human LNCAP cells assessed as p21(Cip1) expression at 6 uM by western blotting analysis. Format: functional, cell-based. In general terms: Immunoblotting shows a protein as a band on a membrane.
In test [2] the test system is LNCaP. Description: Induction of apoptosis in human LNCAP cells assessed as caspase3 level at 6 uM by western blot analysis. It counts as functional, cell-based.
In test [3] the test system is LNCaP. Description: Induction of apoptosis in human LNCAP cells assessed as cleaved PARP level at 6 uM by western blot analysis. Format: functional, cell-based.
In test [4] the test system is LNCaP. The test is described as follows: Antiproliferative activity against human LNCaP C4-2 cells assessed as cell viability at 9 uM after 48 hrs by MTT assay. It counts as functional, cell-based. For orientation: Formazan colour is commonly taken as a measure of viable cells.
Test [5] deals with LNCaP. The test is described as follows: Induction of apoptosis in human LNCAP cells assessed as cleaved PARP expression at 6 uM after 24 hrs cell pretreated with 100 uM AR inhibitor flutamide by western blot analysis. Format: functional, cell-based.
In test [6] the test system is LNCaP. Description: Antiproliferative activity against human LNCaP C4-2 cells assessed as cell viability at 6 uM after 48 hrs by MTT assay. Format: functional, cell-based.
In test [7] the test system is LNCaP. The test is described as follows: Induction of apoptosis in human LNCAP cells assessed as increase in p21(Cip1) mRNA level at 6 uM by semiquantitative RT-PCR technique relative to control. It counts as functional.
In test [8] the test system is LNCaP. Description: Induction of apoptosis in human LNCaP C4-2 cells assessed as increase in caspase3 level at 9 uM after 48 hrs in presence of 100 uM AR inhibitor flutamide by western blot analysis. It counts as functional, cell-based.
Test [9] has as its system DU-145. The test is described as follows: Induction of apoptosis in human DU145 cells assessed as increase in p21(Cip1) expression at 6 uM after 48 hrs by western blotting analysis. Format: functional, cell-based.
The subject of test [10] is LNCaP. Description: Induction of apoptosis in human LNCAP cells assessed as increase in cleaved PARP level at 6 uM after 24 hrs by western blotting analysis. It counts as functional, cell-based.
For test [11], the system named is DU-145. The test is described as follows: Induction of apoptosis in human DU145 cells assessed as cleaved PARP level at 6 uM after 24 hrs by western blotting analysis. It counts as functional, cell-based.
Test [12] relates to DU-145. Description: Induction of apoptosis in human DU145 cells assessed as increase in cleaved PARP level at 6 uM after 48 hrs by western blotting analysis. It counts as functional, cell-based.
Test [13] relates to LNCaP. Description: Induction of apoptosis in human LNCaP C4-2 cells assessed as increase p21(Cip1) mRNA level at 9 uM by semiquantitative RT-PCR technique relative to control. It counts as functional.
The subject of test [14] is LNCaP. Description: Induction of apoptosis in human LNCaP C4-2 cells assessed as increase in cleaved PARP level at 9 uM after 48 hrs in presence of 100 uM AR inhibitor flutamide by western blot analysis. Format: functional, cell-based.
In test [15] the test system is LNCaP. The test is described as follows: Antiproliferative activity against human LNCAP cells assessed as cell viability at 6 uM after 24 hrs by MTT assay. Format: functional, cell-based.
For test [16], the system named is DU-145. Description: Induction of apoptosis in human DU145 cells assessed as formation of crescent shaped apoptotic bodies at 6 uM after 24 hrs by transmission electron microscopic analysis. It counts as functional, cell-based.
Test [17] has as its system LNCaP. The test is described as follows: Induction of apoptosis in human LNCAP cells assessed as caspase-9 expression at 6 uM after 24 hrs cell pretreated with 100 uM AR inhibitor flutamide by western blot analysis. Format: functional, cell-based.
Test [18] relates to LNCaP. Description: Antiproliferative activity against human LNCaP C4-2 cells assessed as cell viability at 6 uM after 24 hrs by MTT assay. It counts as functional, cell-based.
For test [19], the system named is LNCaP. The test is described as follows: Induction of apoptosis in human LNCaP C4-2 cells assessed as increase in caspase3 level at 9 uM after 48 hrs by western blotting analysis. It counts as functional, cell-based.
For test [20], the system named is LNCaP. Description: Cell cycle distribution in human LNCAP cells assessed as accumulation at sub-G1 phase at 6 uM after 24 hrs in presence of 100 uM AR inhibitor flutamide by propidium-iodide staining based flow cytometry. Format: functional.
For test [21], the system named is LNCaP. Description: Induction of apoptosis in human LNCAP cells assessed as caspase-8 expression at 6 uM after 24 hrs cell pretreated with 100 uM AR inhibitor flutamide by western blot analysis. Format: functional, cell-based.
The test system of test [22] is DU-145. Description: Induction of apoptosis in human DU145 cells assessed as active caspase-3 level at 6 um after 24 hrs by western blotting analysis. Format: functional, cell-based.
The test system of test [23] is DU-145. Description: Induction of apoptosis in human DU145 cells assessed as chromatin condensation at 6 uM after 24 hrs by transmission electron microscopic analysis. Format: functional, cell-based.
For test [24], the system named is LNCaP. The test is described as follows: Induction of apoptosis in human LNCAP cells assessed as chromatin condensation at 6 uM after 24 hrs by transmission electron microscopic analysis. Format: functional, cell-based.
Test [25] in a line: Cell cycle distribution in human LNCaP C4-2 cells assessed as accumulation at sub-G1 phase at 9 uM after 48 hrs by propidium iodide staining based flow cytometry. Format: functional.
The test system of test [26] is LNCaP. Description: Induction of apoptosis in human LNCAP cells assessed as p21(Cip1) expression at 6 uM after 24 hrs cell pretreated with 100 uM AR inhibitor flutamide by western blot analysis. It counts as functional, cell-based.
A short description of test [27]: Cell cycle distribution in human LNCaP C4-2 cells assessed as accumulation at sub-G1 phase at 9 uM for 48 hrs in presence of 100 uM AR inhibitor flutamide by propidium-iodide staining based flow cytometry. It counts as functional. (A flow cytometer gives signals particle by particle.)
The subject of test [28] is LNCaP. The test is described as follows: Induction of apoptosis in human LNCAP cells assessed as formation of crescent shaped apoptotic bodies at 6 uM after 24 hrs by transmission electron microscopic analysis. Format: functional, cell-based.
The test system of test [29] is LNCaP. Description: Induction of apoptosis in human LNCaP C4-2 cells assessed as increase in cleaved PARP level at 9 uM after 48 hrs by western blot analysis. Format: functional, cell-based.
Test [30] deals with DU-145. Description: Induction of apoptosis in human DU145 cells assessed as DNA fragmentation at 6 uM after 48 hrs in presence of 5 mM autophagy inhibitor 3-methyladenine by TUNEL assay. It counts as functional, cell-based.
The test system of test [31] is LNCaP. The test is described as follows: Induction of apoptosis in human LNCAP cells assessed as increase in p21(Cip1) expression at 6 uM after 24 hrs by western blotting analysis. It counts as functional, cell-based.
Test [32] relates to LNCaP. Description: Induction of apoptosis in human LNCAP cells assessed as increase active caspase3 level at 6 uM after 24 hrs by western blotting analysis. Format: functional, cell-based.
Test [33] has as its system LNCaP. Description: Induction of apoptosis in human LNCaP C4-2 cells assessed as increase in p21(Cip1) expression at 9 uM after 48 hrs in presence of 100 uM AR inhibitor flutamide by western blotting analysis. Format: functional, cell-based.
The subject of test [34] is LNCaP. Description: Induction of apoptosis in human LNCAP cells assessed as caspase-3 expression at 6 uM after 24 hrs cell pretreated with 100 uM AR inhibitor flutamide by western blot analysis. Format: functional, cell-based.
Test [35] has as its system DU-145. Description: Induction of apoptosis in human DU145 cells assessed as accumulation of autophagic vacuoles in cytoplasm at 6 uM after 24 hrs by fluorescence microscopic analysis. It counts as functional, cell-based.
For test [36], the system named is DU-145. Description: Induction of apoptosis in human DU145 cell assessed as p21(Cip1) expression at 6 uM after 24 hrs by western blotting analysis. Format: functional, cell-based.
The test system of test [37] is LNCaP. Description: Induction of apoptosis in human LNCaP C4-2 cells assessed as increase in p21(Cip1) expression at 9 uM after 48 hrs by western blotting analysis. Format: functional, cell-based.
Test [38] relates to LNCaP. The test is described as follows: Induction of apoptosis in human LNCAP cells assessed as p21(Cip1) mRNA level at 6 uM in presence of 100 uM AR inhibitor flutamide by semiquantitative RT-PCR technique relative to control. It counts as functional.

On to `NC(=O)c1c(Br)n(C2CCCC2)c2ncnc(N)c12`, for which the result with LNCaP [1], in the test with LNCaP [2] and with LNCaP [3] was inactive.

`NC(=O)c1c(Br)nc2n(C3CCCC3)cnc(N)c1-2`: the outcome in the test on LNCaP [4], with LNCaP [6], in the test with LNCaP [8], in the test on DU-145 [9], with LNCaP [10] and with DU-145 [12] was Active. The result (in the test with LNCaP [14]; with LNCaP [15]; with LNCaP [19]; in the test on LNCaP [24]; in test [27]; in the test with LNCaP [28]) was Active. Moreover, the outcome in the test on LNCaP [29], in the test on LNCaP [31], in the test with LNCaP [32], in the test with LNCaP [33], in the test with DU-145 [35] and with LNCaP [37] was Active. Also, the result with LNCaP [5], with DU-145 [11], in the test with DU-145 [16], in the test with LNCaP [17], with LNCaP [18] and with LNCaP [20] was inactive. Moreover, the result with LNCaP [21], in the test on DU-145 [22], with DU-145 [23], in the test with LNCaP [26], with DU-145 [30] and in the test on LNCaP [34] was inactive. Also, in the test on DU-145 [36], the outcome was inactive. The “fold change (FC)” value with LNCaP [7] amounted to 56.98; in the test with LNCaP [13] it was 23; with LNCaP [38] it was 0.38. In addition, the Activity in test [25] came to 30%.
